Measurements as given in article PMC9486186 (Bioactive Materials, 2022).

System: BCR-ABL(T315I) induced CML mice
Assay: Survival of BCR-ABL
Type: in vivo, mouse
Conditions: BPTES 10 mg/kg monotherapy

O=C(Cc1ccccc1)Nc1nnc(CCSCCc2nnc(NC(=O)Cc3ccccc3)s2)s1 [BPTES]
mice still alive on day 60 post BMT: 3/9
